Laboratory results taken from patent publication US20230277524A1, “COMBINATION THERAPY FOR TREATMENT OF VIRAL INFECTIONS” (priority 2020, published 2023).
“Also recorded” adds a separate entry of the source. Read-outs that look alike come from different tables or passages of the source.

Assays:
SARS-CoV-2 virus [1] = type: cell-based
SARS-CoV-2 virus [2] = assay: microbe, parasite or virus in culture; type: cell-based; details: Severe acute respiratory syndrome coronavirus 2, 72 h; Vero E6-WT cells, three days post-infection; read-out: EC50 for % inhibition of virus-induced CPE
SARS-CoV-2 virus [3] = assay: microbe, parasite or virus in culture; type: cell-based
SARS-CoV-2 = assay: Cell-based antiviral assay (CPE, MTS) in Huh7 cells; details: Huh7, 0.0062 μM concentration level, 4 days post-infection
ABCB1 = details: low-nM dual-specificity ABCB1/ABCG2 inhibitor; cited from earlier work
[4] = plate 3, 12 drugs, 250 nM, day 4, MLR model (FIG. 2)
[5] = 250 nM, day 4 (FIG. 3, P3 TOX 250 nM)

## Cc1cc(C)c(Nc2ccnc(Nc3ccc(C#N)cc3)n2)c(C)c1 [dapivirine]
SARS-CoV-2 virus [1]
  enhancement of / effect on the REC combination: all failed to enhance the REC combination

## COc1cc2c(cc1OC)CN(CCc1ccc(NC(=O)c3cccc4c(=O)c5cccc(OC)c5[nH]c34)cc1)CC2 [elacridar]
SARS-CoV-2 virus [2]
  EC50: 1070 ± 500 nM
SARS-CoV-2 virus [3]; Severe acute respiratory syndrome coronavirus 2, 72 h, Vero E6-GFP cells, three days post-infection, read-out: EC50 for % inhibition of virus-induced CPE
  EC50: 2160 ± 500 nM
SARS-CoV-2 virus [1]; [4]
  antiviral response (survival of the cells in response to the SARS-CoV-2 virus): antiviral response was demonstrated
VERO-EGFP cells; [5]
  toxicology (cell viability without virus): none of the three drugs in the triad of remdesivir, elacridar, and curcumin negatively impacted cell viability

## Cc1sc2c(c1C)C(c1ccc(Cl)cc1)=N[C@@H](CC(=O)OC(C)(C)C)c1nnc(C)n1-2 [JQ-1]
SARS-CoV-2 virus [1]
  enhancement of / effect on the REC combination: none of the compounds synergized with the REC combination

## NC(=O)c1nc(F)c[nH]c1=O [favipiravir]
SARS-CoV-2 virus [1]
  enhancement of / effect on the REC combination: had no effect on the efficacy of the remdesivir, elacridar, and curcumin combination
  individual antiviral efficacy against SARS-CoV2: failed to emerge as efficacious
  substitution for remdesivir in the REC combination: none were able to substitute for remdesivir

## N#C[C@@]1(c2ccc3c(N)ncnn23)O[C@H](CO)[C@@H](O)[C@H]1O [GS441524]
SARS-CoV-2 virus [1]
  individual antiviral efficacy against SARS-CoV2: smaller, yet significant, antiviral effect
  substitution for remdesivir in the REC combination: did not replace remdesivir in the REC combination; also recorded: failed to substitute for remdesivir
SARS-CoV-2 virus [1]; system optimization
  criticality when optimized for maximal cytopathic effect: failed to demonstrate criticality

## CCC(CC)COC(=O)[C@H](C)N[P@](=O)(OC[C@H]1O[C@@](C#N)(c2ccc3c(N)ncnn23)[C@H](O)[C@@H]1O)Oc1ccccc1 [remdesivir]
SARS-CoV-2 virus [3]; Vero E6-GFP, 1.11 μM
  inhibition of virus-induced cytopathic effect: 50-60%
SARS-CoV-2 virus [1]
  antiviral response (survival of the cells in response to the SARS-CoV-2 virus): antiviral response was demonstrated
VERO-EGFP cells
  toxicology (cell viability without virus): none of the three drugs in the triad of remdesivir, elacridar, and curcumin negatively impacted cell viability
  toxicology (cytotoxicity without virus): no cytotoxicity
SARS-CoV-2
  cytopathic effect of the virus at one concentration: minimally protected

## C[C@H]1CCC/C=C/[C@@H]2C[C@H](O)C[C@H]2[C@H](O)/C=C/C(=O)O1 [BrefA, Brefeldin A]
VERO-EGFP cells; twelve-drug plate, scanned 4 days later (FIG. 10)
  toxicity (loss of fluorescence intensity, cell loss): cytotoxic and the cause of the observed cell loss

## Cc1nc(-c2ccc(OCC(C)C)c(C#N)c2)sc1C(=O)O [febuxostat]
SARS-CoV-2 virus [1]
  substitution / complementation for elacridar in the REC combination: cannot substitute for elacridar; also recorded: failed to complement

## CN1CC[C@H](c2c(O)cc(O)c3c(=O)cc(-c4ccccc4Cl)oc23)[C@H](O)C1 [flavopiridol]
SARS-CoV-2 virus [1]
  interaction terms / synergism in antiviral response: did not interact significantly with the other three compounds
SARS-CoV-2 virus [1]; [4]
  antiviral response (survival of the cells in response to the SARS-CoV-2 virus): antiviral response was demonstrated
VERO-EGFP cells
  toxicology (cytotoxicity without virus): cytotoxic
VERO-EGFP cells; [5]
  toxicology (cell viability without virus): highly toxic to the Vero-EGFP cells
VERO-EGFP cells; 250 nM, day 4 (FIG. 3, P3 TOX 250 nM), listed as Flavopiridol
  toxicology (cell viability without virus): individually caused cell death

## O=c1nc(NO)ccn1[C@@H]1O[C@H](CO)[C@@H](O)[C@H]1O [EIDD-1931]
SARS-CoV-2 virus [1]
  enhancement of / effect on the REC combination: had no effect on the REC combination
SARS-CoV-2 virus [1]; focus testing (FIGS. 13-18)
  substitution for remdesivir in the REC combination: failed to substitute for remdesivir
SARS-CoV-2 virus [1]; focus testing (FIGS. 13-18), listed as EIDD1931
  substitution for remdesivir in the REC combination: none were able to substitute for remdesivir
SARS-CoV-2 virus [1]; listed as EIDD1
  individual antiviral efficacy against SARS-CoV2: does not exert an antiviral effect
SARS-CoV-2 virus [1]; listed as EIDD1931
  individual antiviral efficacy against SARS-CoV2: did not provide evidence for efficacy

## CCCCC1=NC2(CCCC2)C(=O)N1Cc1ccc(-c2ccccc2-c2nnn[nH]2)cc1 [irbesartan]
SARS-CoV-2 virus [1]
  individual antiviral efficacy against SARS-CoV2: did not provide evidence for efficacy
SARS-CoV-2 virus [1]; [4]
  antiviral response (survival of the cells in response to the SARS-CoV-2 virus): negatively impacted the survival of the cells

## Z-VAD
SARS-CoV-2 virus [1]
  enhancement of / effect on the REC combination: none of the compounds synergized with the REC combination

## Nc1nc(Nc2ccc3c(c2)CCC(N2CCCC2)CC3)nn1-c1cc2c(nn1)-c1ccccc1CCC2 (centres unmarked) [R428]
SARS-CoV-2 virus [1]
  enhancement of / effect on the REC combination: all failed to enhance the REC combination

## ivermectin
SARS-CoV-2 virus [1]
  enhancement of / effect on the REC combination: unable to enhance the REC combination
  individual antiviral efficacy against SARS-CoV2: individual, but limited potency

## CC(C)[C@H](NC(=O)c1ccc2ccccc2n1)C(=O)N[C@@H](CC(=O)O)C(=O)COc1c(F)cccc1F [Q-VD-Oph]
SARS-CoV-2 virus [1]
  enhancement of / effect on the REC combination: none of the compounds synergized with the REC combination

## O=c1c(O)c(-c2ccc(O)c(O)c2)oc2cc(O)cc(O)c12 [Quercetin]
SARS-CoV-2 virus [1]
  substitution / complementation for elacridar in the REC combination: failed to complement for elacridar

## OC(c1cc(C(F)(F)F)nc2c(C(F)(F)F)cccc12)C1CCCCN1 (centres unmarked) [mefloquine]
SARS-CoV-2 virus [1]
  enhancement of / effect on the REC combination: all failed to enhance the REC combination
  individual antiviral efficacy against SARS-CoV2: did not provide evidence for efficacy

## COc1cc2c(cc1OC)CN(CCc1ccc(NC(=O)c3cc(OC)c(OC)cc3NC(=O)c3cnc4ccccc4c3)cc1)CC2 [tariquidar]
ABCB1
  ABCB1 inhibitory potency: 5.1 nM
SARS-CoV-2 virus [1]
  antiviral potency in synergizing with remdesivir (interaction terms): equally potent in synergizing with remdesivir
  substitution / complementation for elacridar in the REC combination: can be substituted for elacridar

## CN(C)C(=O)COC(=O)Cc1ccc(OC(=O)c2ccc(NC(=N)N)cc2)cc1 [camostat]
SARS-CoV-2 virus [1]
  individual antiviral efficacy against SARS-CoV2: did not provide evidence for efficacy
SARS-CoV-2 virus [1]; [4]
  antiviral response (survival of the cells in response to the SARS-CoV-2 virus): negatively impacted the survival of the cells

## CCN(CCO)CCCC(C)Nc1ccnc2cc(Cl)ccc12 (centres unmarked) [hydroxychloroquine]
SARS-CoV-2 virus [1]
  enhancement of / effect on the REC combination: all failed to enhance the REC combination
  individual antiviral efficacy against SARS-CoV2: failed to emerge as efficacious

## CCOC/C=C/c1ccc(-c2nc(-c3ccc(NC(C)C)cc3)c(-c3ccc(NC(C)C)cc3)[nH]2)cc1 [ONT-093]
SARS-CoV-2 virus [1]
  substitution / complementation for elacridar in the REC combination: failed to complement

## CC(N)C12CC3CC(CC(C3)C1)C2 (centres unmarked) [rimantadine]
SARS-CoV-2 virus [1]
  individual antiviral efficacy against SARS-CoV2: did not provide evidence for efficacy

## C=C1CC[C@H](O)C/C1=C/C=C1\CCC[C@]2(C)[C@@H]([C@H](C)CCCC(C)C)CC[C@@H]12 [vit-D3]
SARS-CoV-2 virus [1]
  enhancement of / effect on the REC combination: failed to enhance the REC combination

## Nc1ncnc2c([C@@H]3N[C@H](CO)[C@@H](O)[C@H]3O)c[nH]c12 [galidesivir]
SARS-CoV-2 virus [1]
  contribution factor to the effect of the REC combination: 9.6

## CC(=O)N[C@@H](CS)C(=O)O [N-acetyl cysteine]
SARS-CoV-2 virus [1]
  complementing the REC combination or substituting for curcumin: failed to complement the REC combination, or substitute for curcumin

## Cc1c(O)c(=O)ccn1C [Deferiprone]
SARS-CoV-2 virus [1]
  complementing the REC combination or substituting for curcumin: failed to complement the REC combination or substitute for curcumin

## Cc1c(O)cccc1C(=O)N[C@@H](CSc1ccccc1)[C@H](O)CN1C[C@H]2CCCC[C@H]2C[C@H]1C(=O)NC(C)(C)C [nelfinavir]
SARS-CoV-2 virus [1]
  enhancement of / effect on the REC combination: all failed to enhance the REC combination

## CC(C)c1nc(CN(C)C(=O)N[C@H](C(=O)N[C@@H](Cc2ccccc2)C[C@H](O)[C@H](Cc2ccccc2)NC(=O)OCc2cncs2)C(C)C)cs1 [ritonavir]
SARS-CoV-2 virus [1]
  individual antiviral efficacy against SARS-CoV2: did not provide evidence for efficacy

## [Zn] [zinc]
SARS-CoV-2 virus [1]
  enhancement of / effect on the REC combination: failed to enhance the REC combination

## CC(C)C(=O)OC[C@H]1O[C@@H](n2cc/c(=N\O)[nH]c2=O)[C@H](O)[C@@H]1O [EIDD-2801]
SARS-CoV-2 virus [1]
  substitution for remdesivir in the REC combination: failed as a substitute for remdesivir; also recorded: none were able to substitute for remdesivir

## Cc1cccc(C)c1OCC(=O)N[C@@H](Cc1ccccc1)[C@@H](O)C[C@H](Cc1ccccc1)NC(=O)[C@H](C(C)C)N1CCCNC1=O [lopinavir]
SARS-CoV-2 virus [1]
  individual antiviral efficacy against SARS-CoV2: did not provide evidence for efficacy

## COc1ccc2c3c([nH]c2c1)[C@H](CC(C)C)N1C(=O)[C@H](CCC(=O)OC(C)(C)C)NC(=O)[C@@H]1C3 [Ko143]
SARS-CoV-2 virus [1]; focus testing, REC combination at 250 nM (FIGS. 11, 12, 17)
  substitution / complementation for elacridar in the REC combination: failed to complement for elacridar
SARS-CoV-2 virus [1]; focus testing, REC combination at 250 nM (FIGS. 11, 12, 17), listed as K0143
  substitution / complementation for elacridar in the REC combination: cannot substitute for elacridar
